Laboratory results taken from a melting point compilation (Tetko et al.; mined from patent text by program, amines drawn as free bases though some values may be those of a salt).

Compound	melting point
Cc1cc2c(c3ccc(=O)[nH]c13)OC(CC(=O)[C@@H](C)N)C2 (some centres undefined)	222 to 225 °C
Cc1c(-c2cc(Br)c(O)c(Br)c2)oc2ccc(OP(=O)(O)O)cc2c1=O	258 to 260 °C
O=C(O)C(=O)c1ccc(S(=O)CCOc2ccc3ccccc3c2)cc1 (centres undefined)	157 to 158 °C
Cc1ncsc1C(=O)Nc1ccc(-n2nc(C(F)(F)F)c(Cl)c2C2CC2)cc1	161 to 164 °C
CC(c1ccc(-c2ccccc2F)cc1)S(=O)CC(=O)N(C)C (centres undefined)	131 to 133 °C
CC(C)(C)c1cc(I)c(O)c(CNC(=O)C(F)(F)F)c1	118 to 119 °C
COC(=O)COc1ccc(CC(C)NCC(O)c2cc3ccccc3o2)cc1C (centres undefined)	115 to 130 °C
Nc1cc(C=C2OC(=O)c3ccccc32)ccc1Cl	148 to 153 °C
COc1cccc2c3c([nH]c12)CCNC3=O	255 to 258 °C
CC1(n2cc(C(=O)O)c(=O)c3cc(F)c(F)c(F)c32)CC1	292 to 294 °C
CO[C@]12C[C@@H](CN3CCC(O)(c4cccc(C(F)(F)F)c4)CC3)CN(C)[C@@H]1Cc1c[nH]c3cccc2c13	135 to 140 °C
COC(=O)C(C)[C@H]1CC[C@H]2[C@@H]3CCC4=CC(=O)CC[C@]4(C)[C@H]3CC[C@]12C (some centres undefined)	175 to 177 °C
O=c1cc(COC2CCCCO2)occ1OCCCCCBr (centres undefined)	140 °C
CS(=O)(=O)N1CCN(c2cc(Cl)ncn2)CC1	200 to 202 °C
O=C1C=C(c2c[nH]c3ccc(F)cc23)C(=O)N1	255 to 265 °C
O=C(O)Cc1ccc(CCNS(=O)(=O)c2ccc3ccccc3c2)cc1	135 to 136 °C
Cc1cc2c3c(ccc2cc1Br)OC(=O)C3	238 to 240 °C
CC1(C)CCOC1=C(Oc1ccc(Cl)cc1)n1ccnc1	85 to 88 °C
Cc1nc(CN2C(=O)C3(COc4cc5c(cc43)OCO5)c3ccccc32)c(C(F)(F)F)o1 (centres undefined)	136 to 137 °C
CCOC(=O)C(Cc1cc2c([N+](=O)[O-])cccc2[nH]1)[N+](=O)[O-] (centres undefined)	110 to 112 °C
O=c1[nH]ncc2[nH]c(-c3ccc(OC(F)F)c(OC4CC4)c3)cc12	287 to 292 °C
O=C1c2c(F)c(F)c(F)c(F)c2C(=O)N1c1ccc(F)cc1F	145 to 146 °C
CCCCCCCCCCCCCCCCCCC(COC(C)=O)(COC(C)=O)NC(C)=O	90 to 91 °C
c1ccc2c(=Nc3ccncc3)cc3oc4cc(N5CCOCC5)ccc4nc-3c2c1	> 300 °C
CCC1=NN=C(c2ccc(OC)c(OC)c2)c2cc(OC)c(OC)cc2C1CC (centres undefined)	142 to 144 °C

Compound	melting point
COc1ccccc1NC(=O)Nc1nc(Nc2ccccc2-c2ccccc2)nc(N(CCC(=O)O)CCc2c[nH]c3ccccc23)n1	115 to 120 °C
CC(C)CC(=O)Nc1cccc(-c2ccnc3c(C(=O)C4CCCC4)cnn23)c1	69 to 71 °C
CCOC(=O)CC(=O)CCNC(=O)OCc1ccccc1	25 to 27 °C
O=C1C(=Cc2cccc3ccccc23)CCc2cc(OCCn3ccnc3)ccc21	147 to 148 °C
CN(C)CCCN1c2ccccc2C(c2ccccc2F)=Nc2cccnc21	92 to 94 °C
C=CCC(C)(C)C(=O)NC1CCCNC(=O)C1 (centres undefined)	71 to 72 °C
COc1ccc(Oc2cccc(C(F)(F)F)c2)c(C(=O)O)c1	124 °C
CC(=O)NC(Cc1csc2ccccc12)C(CCc1cc(C(F)(F)F)cc(C(F)(F)F)c1)=NO (centres undefined)	200 to 201 °C
O=C(O)c1cn([C@@H]2C[C@@H]2F)c2c(Cl)c(N3CC4=C(CNC4)C3)c(F)cc2c1=O	221 to 223 °C
CCOC(=O)C(NC(=O)CNC(=O)CC)C(=O)OCC	120 to 122 °C
CCOC(=O)COc1ccccc1C(=O)Nc1ccccc1Sc1ccccc1-c1nnn[nH]1	145 to 146 °C
CC(O)c1cccc([N+](=O)[O-])c1Cl (centres undefined)	62 to 64 °C
CC(=O)OC(C)c1ccc2cc(OCc3ccccc3)ccc2c1 (centres undefined)	97 to 98 °C
COc1cc2c3c(n(C)c(=O)c2cc1OC)-c1cc(OCc2ccccc2)c(OCc2ccccc2)cc1C3=O	238 to 240 °C
Cc1cc(C)c(C(=O)Nc2ccc(-n3nc(C(F)(F)F)cc3C(F)(F)F)cc2)c(C)c1	203 to 205 °C
CC(C)(C)C(=O)OCOC(=O)c1c2n(c3cc4c(cc3c1=O)OCO4)CCS2	229 to 230 °C
CNc1ncnc2c1c(-c1ccc([N+](=O)[O-])o1)nn2C	280 °C
CN1CCN(C2=Nc3ccccc3N3CCc4cc(Cl)cc2c43)CC1	182 to 183 °C
COc1ccc(-c2ccc(Cl)cc2)cc1COCCc1cccc(NS(=O)(=O)C(F)(F)F)c1	99 to 101 °C
CCC(CC)(CCCS(N)(=O)=O)COc1nn2ccnc2cc1C	139 to 140 °C
Cc1c(C(=O)Nc2ccc(N3CCNCC3)c(C#N)c2)cnn1-c1ccc(F)cc1	218 to 219 °C
Cc1cccc2c(C(CO)=C3SC(=O)NC3=O)cccc12	160 to 161 °C
CCCc1c(OCCCOc2cc(OCc3ccccc3)c(-c3ccc(F)cc3)cc2CC)cccc1Oc1cc(F)ccc1C(=O)OC	77 to 78 °C
CN(C)C1(c2ccccc2)CCC(C(O)CN2Cc3ccccc3C2)CC1 (centres undefined)	130 to 135 °C
COCCN(C)CC1=Cc2cc(S(N)(=O)=O)sc2S(=O)(=O)N1C	127 to 129 °C

Compound	melting point
CCc1cc(C(=O)c2ccccc2Cl)c(-n2c(CNC(=O)c3cc4ccccc4n3CC(=O)O)nnc2C(F)(F)F)s1	200 to 203 °C
CC(C)(C)OC(=O)NCc1cccc(OCCC2Oc3ccccc3N(Cc3ccc(Cl)cc3)C2=O)c1 (centres undefined)	114 to 116 °C
CCCCCCCc1cc(O)cc(O)c1C(=O)OCc1ccccc1	104 °C
N=C(NCc1cnccn1)NN=Cc1c(Cl)cccc1Cl	168 to 169 °C
CCOC(=O)Cc1ccc(-c2ccc(OC)cc2)cc1	68 °C
CCOC(=O)c1cnc(O)nc1-c1ccccc1	> 260 °C
O=C(c1ccccc1)c1cccc2c1CCC2C(=O)NO (centres undefined)	160 °C
C=CCn1c(C)c(C)c2cnnc(OCc3ccc(F)cc3F)c21	125 to 126 °C
CC(c1ccccc1)C1(OC(=O)C(C)(C)C)C(=O)NC(=O)NC1=O (centres undefined)	205 to 207 °C
Clc1ccc(Nc2nnc(Cl)c3sccc23)cc1	139 to 142 °C
COc1cc(-c2ccc(C(C)C)cc2)c(C)c2oc(=O)c(C)c(C)c12	172 °C
O=C(O)COc1ccc2c(-c3ccoc3)noc2c1Cl	225 to 227 °C
CCCCCCCCN1C(=O)c2c(Br)sc(Br)c2C1=O	104 °C
OC1(c2ccc(Cl)cc2)CCNC1 (centres undefined)	79 to 80 °C
O=C(O)Cc1csc(-c2ncccc2O)n1	175 to 176 °C
CCOC(=O)C(=CNc1ccc(Br)cn1)[N+](=O)[O-]	141 to 142 °C
O=C(NCc1ccc(Cl)cc1)c1cnc2cc(Cl)ccc2c1O	237 to 239 °C
O=C(Cn1cccc(O)c1=O)NCCCCCCNC(=O)Cn1cccc(O)c1=O	240 to 242 °C
CC(C)(Oc1ccc(Cl)cc1)C(O)(Cn1cncn1)c1ccc(Cl)cc1 (centres undefined)	135 °C
CCC(=O)N(Cc1cnc(Cl)s1)C(=N[N+](=O)[O-])NC	89 to 90 °C
CC1=CC(N(C)Cc2ccccc2)C(O)C(C)(C)CC1=O (centres undefined)	78.5 to 80 °C
CC(C)c1nc(CCO)n(Cc2ccncc2)c1Sc1cc(Cl)cc(Cl)c1	121 to 122 °C
CC(C)(C)OC(=O)/C=C/c1cc2ncc(C#N)c(Cl)c2s1	193 to 194 °C
CC(C)(C)OC(=O)CN(CC(=O)O)CC(=O)OC(C)(C)C	76 to 82 °C
O=C(c1ccc2nonc2c1)N1CCOCC1	148 to 150 °C

Compound	melting point
COc1cc(C(=O)Cl)ccc1NC(=O)c1ccccc1-c1ccccc1	121 to 123 °C
CC(C)(C)c1cc(CCC(=O)NNC(=O)C=Cc2ccccc2)cc(C(C)(C)C)c1O	224 to 225 °C
CCCCCn1c(C)c(C(=O)c2ccc(Br)c3ccccc23)c2cccc(OC)c21	114 °C
COc1ccc(Oc2ccc3c(c2)C=C(C(=O)O)C(C(F)(F)F)O3)cc1 (centres undefined)	182 to 183 °C
Cc1c(C(=O)O)cnn1-c1ccc(Cl)c(Cl)c1	188 °C
C=CCn1c(=O)ccc2cc(F)c(-n3c(=O)cc(C(F)(F)F)n(C)c3=O)cc21	178 to 179 °C
CCOC(=O)c1cn(C2CC2)c2c(F)c(N3CC(O)C3)c(F)cc2c1=O	260 to 270 °C
COc1cc(OCc2ccccn2)ccc1/C=C/c1cc(/C=C/c2ccc(OCc3ccccn3)cc2OC)[nH]n1	195 to 197 °C
CCCCCc1c(/C=C/C(=O)O)sc2cc(OC)ccc12	209 to 210 °C
CCCCCN(CCC12CC3CC(CC(C3)C1)C2)C(=O)NC/C=C/c1ccncc1	90 to 118 °C
Cc1oc(-c2ccccc2)nc1COc1ccc(Cn2cc(CCC(=O)O)c(-c3ccccn3)c2)cc1	155 to 156 °C
CC(C)(C)OC(=O)N1CCC2(CC1)CSC1=C(O2)c2cc(-c3ccccc3C(F)(F)F)ccc2C(=O)C1=O	223 to 225 °C
Oc1ccc(CC2CO2)cc1 (racemic)	54 to 57 °C
CC1COCC(C)N1C(=O)N1Cc2c(-c3noc(C4CC4)n3)ncn2-c2ccc(F)cc21 (centres undefined)	143 to 146 °C
COc1ccc2c(c1)OC(CN)C2 (centres undefined)	> 220 °C
CC(C)c1c(S(=O)(=O)c2ccc(O)cc2)c2ccccn2c1C#N	232 °C
CC(C)c1nc(CN=[N+]=[N-])n(C)c1Sc1cc(Cl)cc(Cl)c1	84 to 85 °C
O=C(O)CCCCSc1nc(-c2ccccc2)c(-c2ccccc2)[nH]1	190 to 195 °C
COc1ccc(C2OCC(COC(C(F)(F)F)(C(F)(F)F)C(F)(F)F)(COC(C(F)(F)F)(C(F)(F)F)C(F)(F)F)CO2)cc1	89 to 90 °C
Brc1ccc(-c2coc3c2ccc2ccccc23)cc1	125 to 130 °C
Cn1cc(C(=O)NCc2ccc(Cl)cc2)c(=O)c2cc(CN3CCOCC3)cc(C#CCF)c21	189 to 191 °C
COCCSNS(=O)(=O)c1ccccc1	119 to 121 °C
CCOC(=O)C(C(=O)OCC)c1ccc([N+](=O)[O-])cn1	91.5 to 93.5 °C
COC1(OC)SC(c2ccncc2)=C(C)NC1=O	154 to 155 °C
